tested on: not listed separately; assay: Inhibition of human CDC7/ASK using FITC-labelled MCM2 substrate preincubated for 30 mins followed by substrate addition and measured after 5 hrs in presence of 1 mM of ATP; conditions: not given

Row | SMILES | IC50 [nM]
1 | CCOC(=O)C1=C(NC2CCCCC2)O/C(=C\c2c[nH]c3ncccc23)C1=O | 53
2 | CCOC(=O)C1=C(N2CCC(O)CC2)O/C(=C\c2c[nH]c3ncccc23)C1=O | 23
3 | CCOC(=O)C1=C(NN2CCCC2)O/C(=C\c2c[nH]c3ncccc23)C1=O | 1.1
4 | CCOC(=O)C1=C(NN2CCN(CCO)CC2)O/C(=C\c2c[nH]c3ncccc23)C1=O | 1.3
5 | CCOC(=O)C1=C(NN(CC)CC)O/C(=C\c2c[nH]c3ncccc23)C1=O | 2.4
6 | CCOC(=O)C1=C(N2CCCN(C)CC2)O/C(=C\c2c[nH]c3ncccc23)C1=O | > 10000
7 | CCOC(=O)C1=C(NN2CCOCC2)O/C(=C\c2c[nH]c3ncccc23)C1=O | 0.15
8 | CCOC(=O)C1=C(N(C)C2CCCCC2)O/C(=C\c2c[nH]c3ncccc23)C1=O | 23
9 | CCOC(=O)C1=C(Nc2ccccc2Cl)O/C(=C\c2c[nH]c3ncccc23)C1=O | 0.6
10 | CCOC(=O)C1=C(NCCOC)O/C(=C\c2c[nH]c3ncccc23)C1=O | > 10000
11 | CCOC(=O)C1=C(N2CCC(CO)CC2)O/C(=C\c2c[nH]c3ncccc23)C1=O | 10
12 | CCOC(=O)C1=C(N2CCCCCC2)O/C(=C\c2c[nH]c3ncccc23)C1=O | 3.9
13 | CCOC(=O)C1=C(NN(C)C2CCCCC2)O/C(=C\c2c[nH]c3ncccc23)C1=O | 2
14 | CCOC(=O)C1=C(NN2CCN(C)CC2)O/C(=C\c2c[nH]c3ncccc23)C1=O | 4.5
15 | CCOC(=O)C1=C(NN2CCCCCC2)O/C(=C\c2c[nH]c3ncccc23)C1=O | 0.9

tested on: not listed separately; assay: Inhibition of human CDC7/ASK using FITC-labelled MCM2 substrate in presence of 5 uM of ATP; conditions: not given

Row | SMILES | IC50 [nM]
16 | CCOC(=O)C1=C(NC2CCCCC2)O/C(=C\c2c[nH]c3ncccc23)C1=O | 7.7
17 | CCOC(=O)C1=C(N2CCN(CCO)CC2)O/C(=C\c2c[nH]c3ncccc23)C1=O | 72
18 | CCOC(=O)C1=C(N2CCC(O)CC2)O/C(=C\c2c[nH]c3ncccc23)C1=O | 14
19 | CCOC(=O)C1=C(NCCN(C)C)O/C(=C\c2c[nH]c3ncccc23)C1=O | 538
20 | CCOC(=O)C1=C(NC2CCN(C)CC2)O/C(=C\c2c[nH]c3ncccc23)C1=O | 93
21 | CCOC(=O)C1=C(NN2CCCC2)O/C(=C\c2c[nH]c3ncccc23)C1=O | 6.9
22 | CCOC(=O)C1=C(NN2CCN(CCO)CC2)O/C(=C\c2c[nH]c3ncccc23)C1=O | 10
23 | CCOC(=O)C1=C(NC2CCCC2)O/C(=C\c2c[nH]c3ncccc23)C1=O | 13
24 | CCNC1=C(C(=O)OCC)C(=O)/C(=C/c2c[nH]c3ncccc23)O1 | 32
25 | CCOC(=O)C1=C(NN(CC)CC)O/C(=C\c2c[nH]c3ncccc23)C1=O | 6.9
26 | CCOC(=O)C1=C(N2CCCCC2)O/C(=C\c2c[nH]c3ncccc23)C1=O | 16
27 | CCOC(=O)C1=C(N2CCOCC2)O/C(=C\c2c[nH]c3ncccc23)C1=O | 35
28 | CCOC(=O)C1=C(N2CCCN(C)CC2)O/C(=C\c2c[nH]c3ncccc23)C1=O | 133
29 | CCOC(=O)C1=C(NN2CCOCC2)O/C(=C\c2c[nH]c3ncccc23)C1=O | 2.9
30 | CCOC(=O)C1=C(NC(C)C)O/C(=C\c2c[nH]c3ncccc23)C1=O | 21
31 | CCOC(=O)C1=C(N(C)C2CCCCC2)O/C(=C\c2c[nH]c3ncccc23)C1=O | 9.5
32 | CCOC(=O)C1=C(Nc2ccccc2Cl)O/C(=C\c2c[nH]c3ncccc23)C1=O | 2.4
33 | CCOC(=O)C1=C(NCCOC)O/C(=C\c2c[nH]c3ncccc23)C1=O | 84
34 | CCOC(=O)C1=C(N2CCC(CO)CC2)O/C(=C\c2c[nH]c3ncccc23)C1=O | 15
35 | CCOC(=O)C1=C(N2CCCCCC2)O/C(=C\c2c[nH]c3ncccc23)C1=O | 5.6
36 | CCOC(=O)C1=C(NN(C)C2CCCCC2)O/C(=C\c2c[nH]c3ncccc23)C1=O | 5.9
37 | CCOC(=O)C1=C(NN2CCN(C)CC2)O/C(=C\c2c[nH]c3ncccc23)C1=O | 12
38 | CCOC(=O)C1=C(NN2CCCCCC2)O/C(=C\c2c[nH]c3ncccc23)C1=O | 5

tested on: not listed separately; assay: Inhibition of human CDC7/ASK using FITC-labelled MCM2 substrate in presence of 1 mM of ATP; conditions: not given

Row | SMILES | IC50 [nM]
39 | CCOC(=O)C1=C(NC2CCCCC2)O/C(=C\c2c[nH]c3ncccc23)C1=O | 667
40 | CCOC(=O)C1=C(N2CCN(CCO)CC2)O/C(=C\c2c[nH]c3ncccc23)C1=O | 6010
41 | CCOC(=O)C1=C(N2CCC(O)CC2)O/C(=C\c2c[nH]c3ncccc23)C1=O | 1260
42 | CCOC(=O)C1=C(NN2CCCC2)O/C(=C\c2c[nH]c3ncccc23)C1=O | 694
43 | CCOC(=O)C1=C(NN2CCN(CCO)CC2)O/C(=C\c2c[nH]c3ncccc23)C1=O | 543
44 | CCOC(=O)C1=C(NC2CCCC2)O/C(=C\c2c[nH]c3ncccc23)C1=O | 1470
45 | CCOC(=O)C1=C(NN(CC)CC)O/C(=C\c2c[nH]c3ncccc23)C1=O | 396
46 | CCOC(=O)C1=C(N2CCCCC2)O/C(=C\c2c[nH]c3ncccc23)C1=O | 856
47 | CCOC(=O)C1=C(N2CCOCC2)O/C(=C\c2c[nH]c3ncccc23)C1=O | 2680
48 | CCOC(=O)C1=C(N2CCCN(C)CC2)O/C(=C\c2c[nH]c3ncccc23)C1=O | > 10000
49 | CCOC(=O)C1=C(NN2CCOCC2)O/C(=C\c2c[nH]c3ncccc23)C1=O | 364
50 | CCOC(=O)C1=C(N(C)C2CCCCC2)O/C(=C\c2c[nH]c3ncccc23)C1=O | 954
51 | CCOC(=O)C1=C(Nc2ccccc2Cl)O/C(=C\c2c[nH]c3ncccc23)C1=O | 278
52 | CCOC(=O)C1=C(N2CCC(CO)CC2)O/C(=C\c2c[nH]c3ncccc23)C1=O | 1340
53 | CCOC(=O)C1=C(N2CCCCCC2)O/C(=C\c2c[nH]c3ncccc23)C1=O | 394
54 | CCOC(=O)C1=C(NN(C)C2CCCCC2)O/C(=C\c2c[nH]c3ncccc23)C1=O | 410
55 | CCOC(=O)C1=C(NN2CCN(C)CC2)O/C(=C\c2c[nH]c3ncccc23)C1=O | 1070
56 | CCOC(=O)C1=C(NN2CCCCCC2)O/C(=C\c2c[nH]c3ncccc23)C1=O | 451

tested on: not listed separately; assay: Metabolic stability in mouse liver microsomes assessed as parent compound remaining after 30 mins; format: ADME, Microsome; conditions: microsomes, 0.5 h

Row | SMILES | Stability
57 | CCOC(=O)C1=C(N2CCCCCC2)O/C(=C\c2c[nH]c3ncccc23)C1=O | Unstable

tested on: not listed separately; assay: Metabolic stability in human liver microsomes assessed as parent compound remaining after 30 mins; format: ADME, Microsome; conditions: microsomes, 0.5 h

Row | SMILES | Stability
58 | CCOC(=O)C1=C(N2CCCCCC2)O/C(=C\c2c[nH]c3ncccc23)C1=O | Unstable

biological target: Cell division cycle 7-related protein kinase (Homo sapiens, UniProt O00311); assay: Inhibition of CDC7 in human COLO205 cells assessed as reduction in MCM2 phosphorylation at S53 residue at 0.1 uM incubated for 48 hrs by Western blot analysis relative to control; format: cell-based; conditions: COLO 205
Sequence (O00311 whole entry, looked up): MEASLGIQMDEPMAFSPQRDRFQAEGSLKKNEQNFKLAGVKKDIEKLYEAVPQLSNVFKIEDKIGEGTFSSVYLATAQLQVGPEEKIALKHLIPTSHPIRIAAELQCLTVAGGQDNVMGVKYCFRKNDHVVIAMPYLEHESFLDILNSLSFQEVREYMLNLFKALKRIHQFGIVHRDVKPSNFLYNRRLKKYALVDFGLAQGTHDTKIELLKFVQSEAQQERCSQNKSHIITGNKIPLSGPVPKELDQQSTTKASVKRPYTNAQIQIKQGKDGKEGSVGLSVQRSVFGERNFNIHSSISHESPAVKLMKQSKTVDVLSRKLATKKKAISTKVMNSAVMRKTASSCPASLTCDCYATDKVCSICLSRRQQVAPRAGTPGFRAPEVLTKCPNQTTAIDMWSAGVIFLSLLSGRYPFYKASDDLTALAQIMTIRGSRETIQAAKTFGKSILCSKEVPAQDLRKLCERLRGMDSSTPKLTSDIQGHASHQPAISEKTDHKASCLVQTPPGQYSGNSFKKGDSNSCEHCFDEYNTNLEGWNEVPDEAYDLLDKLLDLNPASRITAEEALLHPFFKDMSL

Row | SMILES | inhibition [%]
59 | CCOC(=O)C1=C(NN2CCCC2)O/C(=C\c2c[nH]c3ncccc23)C1=O | 100
60 | CCOC(=O)C1=C(NN2CCN(CCO)CC2)O/C(=C\c2c[nH]c3ncccc23)C1=O | 18
61 | CCOC(=O)C1=C(NN(CC)CC)O/C(=C\c2c[nH]c3ncccc23)C1=O | 67
62 | CCOC(=O)C1=C(NN2CCOCC2)O/C(=C\c2c[nH]c3ncccc23)C1=O | 70
63 | CCOC(=O)C1=C(NN(C)C2CCCCC2)O/C(=C\c2c[nH]c3ncccc23)C1=O | 35
64 | CCOC(=O)C1=C(NN2CCN(C)CC2)O/C(=C\c2c[nH]c3ncccc23)C1=O | 63
65 | CCOC(=O)C1=C(NN2CCCCCC2)O/C(=C\c2c[nH]c3ncccc23)C1=O | 100

tested on: COLO 205; assay: Induction of cell cycle arrest in human COLO205 cells assessed as accumulation of cells at sub-G1 phase at 1 uM incubated for 48 hrs by propidium iodide staining based flow cytometry analysis; format: functional; conditions: not given

Row | SMILES | Activity [%]
66 | CCOC(=O)C1=C(NN2CCCC2)O/C(=C\c2c[nH]c3ncccc23)C1=O | 17.4
67 | CCOC(=O)C1=C(NN2CCN(CCO)CC2)O/C(=C\c2c[nH]c3ncccc23)C1=O | 0
68 | CCOC(=O)C1=C(NN(CC)CC)O/C(=C\c2c[nH]c3ncccc23)C1=O | 14.5
69 | CCOC(=O)C1=C(NN2CCOCC2)O/C(=C\c2c[nH]c3ncccc23)C1=O | 46.4
70 | CCOC(=O)C1=C(NN(C)C2CCCCC2)O/C(=C\c2c[nH]c3ncccc23)C1=O | 33
71 | CCOC(=O)C1=C(NN2CCN(C)CC2)O/C(=C\c2c[nH]c3ncccc23)C1=O | 15.9
72 | CCOC(=O)C1=C(NN2CCCCCC2)O/C(=C\c2c[nH]c3ncccc23)C1=O | 23.2

Reference: ChEMBL document CHEMBL4828769, “Discovery of AS-0141, a Potent and Selective Inhibitor of CDC7 Kinase for the Treatment of Solid Cancers” (J Med Chem, 2021)
